Experimental data: patent EP4238971A1, “SUBSTITUTED ISOXAZOLINE DERIVATIVES” (BASF SE, priority 2022, dated 2023)
Like-named read-outs stand apart in the source and are kept apart here.

Experiments:
Format in all cases: in vivo
Anthonomus grandis = assay: Boll weevil (Anthonomus grandis) control, insect diet in 96-well microtiter plates; settings: for mortality at 2500 ppm: Anthonomus grandis, 120 h, read-out: mortality in comparison with untreated controls; for mortality in comparison with untreated controls: 2500ppm
Experimental: (§1) If not otherwise specified, the test solutions were prepared as follows: The active compound was dissolved at the desired concentration in a mixture of 1:1 (vol:vol) distilled water:acetone. The test solution was prepared at the day of use.
(§2) Test solutions were prepared in general at a concentration of 2500ppm (wt/vol).
B.1. Boll weevil (Anthonomus grandis)
For evaluating control of boll weevil, the test unit consisted of 96-well-microtiter plates containing an insect diet and 5-10 A. grandis eggs.
The compounds were formulated using a solution containing 75% v/v water and 25% v/v DMSO. Different concentrations of formulated compounds were sprayed onto the insect diet at 5µl, using a custom-built micro atomizer, at two replications.
After application, microtiter plates were incubated at about 25 ± 1°C and about 75 ± 5 % relative humidity for 5 days. Egg and larval mortality were then visually assessed.

Dichromothrips corbetti = assay: Orchid thrips (Dichromothrips corbetti), floral-immersion technique; settings: for mortality at 300 ppm: Dichromothrips corbetti, read-out: mortality in comparison with untreated controls
Experimental: B.6. Orchid thrips (Dichromothrips corbetti)
Dichromothrips corbetti adults used for bioassay were obtained from a colony maintained continuously under laboratory conditions. For testing purposes, the test compound was diluted in a 1:1 mixture of acetone:water (vol:vol), plus Kinetic at a rate of 0.01% v/v.
Thrips potency of each compound was evaluated by using a floral-immersion technique. Each orchid petal was dipped into treatment solution and allowed to dry in Petri dishes. Treated petals were placed into individual re-sealable plastic along with about 20 adult thrips. All test arenas were held under dark condition and a temperature of about 28°C for duration of the assay. The percent mortality was recorded 72 hours after treatment.

Aedes aegypti = assay: whole plant or invertebrate; settings: larval mortality visually assessed after 2 days; for mortality at 2500 ppm: Aedes aegypti, 48 h, read-out: mortality in comparison with untreated controls; for mortality in comparison with untreated controls: 2500ppm
Experimental: as §1, §2
B.4. Yellow fever mosquito (Aedes aegypti)
For evaluating control of Yellow Fever Mosquito, the test unit consisted of 96-well-microtiter plates containing 200µl of tap water per well and 5-15 freshly hatched A. aegypti larvae. The active compounds were formulated using a solution containing 75% (v/v) water and 25% (v/v) DMSO. Different concentrations of formulated compounds or mixtures were sprayed onto the insect diet at 2.5µl, using a custom-built micro atomizer, at two replications.
After application, microtiter plates were incubated at 28 ± 1°C, 80 ± 5 % RH for 2 days. Larval mortality was then visually assessed.

Plutella xylostella = assay: Diamond back moth (Plutella xylostella), cabbage leaf disc dip test; settings: for mortality at 300 ppm: Plutella xylostella, foliar, read-out: mortality in comparison with untreated controls
Experimental: B.5. Diamond back moth (Plutella xylostella)
The active compound was dissolved at the desired concentration in a mixture of 1:1 (vol:vol) distilled water: acetone. Surfactant (Kinetic) was added at a rate of 0.01% (vol/vol). The test solution was prepared at the day of use. Cabbage leaf discs (60mm in diameter) were dipped in test solution and air-dried. Treated leaves were placed in petri dishes lined with moistened filter paper and inoculated with ten 3rd instar larvae. Mortality was recorded 72 hours after treatment. Feeding damages were also recorded using a scale of 0-100%.

Heliothis virescens = assay: Tobacco budworm (Heliothis virescens) control, insect diet in 96-well microtiter plates; settings: for mortality at 2500 ppm: Heliothis virescens, 120 h, read-out: mortality in comparison with untreated controls
Experimental: as §1, §2
B.3. Tobacco budworm (Heliothis virescens)
For evaluating control of Tobacco Budworm, the test unit consisted of 96-well-microtiter plates containing an insect diet and 15-25 H. virescens eggs. The compounds were formulated using a solution containing 75% v/v water and 25% v/v DMSO. Different concentrations of formulated compounds were sprayed onto the insect diet at 10µl, using a custom-built micro atomizer, at two replications. After application, microtiter plates were incubated at about 28 ± 1°C and about 80 ± 5 % relative humidity for 5 days. Egg and larval mortality was then visually assessed.

Spodoptera eridania = assay: Southern armyworm (Spodoptera eridania), 2nd instar larvae, sprayed lima bean plants; settings: for mortality at 300 ppm: Spodoptera eridania, 96 h, read-out: mortality in comparison with untreated controls; for mortality in comparison with untreated controls: 300ppm, 2nd instar larvae, assessed 4 days after treatment
Experimental: B.7. Southern armyworm (Spodoptera eridania), 2nd instar larvae
The active compounds were formulated by a Tecan liquid handler in 100% cyclohexanone as a 10'000 ppm solution supplied in tubes. The 10'000 ppm solution was serially diluted in 100% cyclohexanone to make interim solutions. These served as stock solutions for which final dilutions were made by the Tecan in 50% acetone:50% water (v/v) into 10 or 20ml glass vials. A nonionic surfactant (Kinetic®) was included in the solution at a volume of 0.01% (v/v). The vials were then inserted into an automated electrostatic sprayer equipped with an atomizing nozzle for application to plants/insects. Lima bean plants (variety Sieva) were grown 2 plants to a pot and selected for treatment at the 1st true leaf stage. Test solutions were sprayed onto the foliage by an automated electrostatic plant sprayer equipped with an atomizing spray nozzle. The plants were dried in the sprayer fume hood and then removed from the sprayer. Each pot was placed into perforated plastic bags with a zip closure. Ten to 11 armyworm larvae were placed into the bag and the bags zipped closed. Test plants were maintained in a growth room at about 25°C and about 20-40% relative humidity for 4 days, avoiding direct exposure to fluorescent light (14:10 light:dark photo-period) to prevent trapping of heat inside the bags. Mortality and reduced feeding were assessed 4 days after treatment, compared to untreated control plants.

Myzus persicae = assay: Green peach aphid (Myzus persicae), mixed life stages, systemic test via artificial diet under membrane; settings: for mortality at 2500 ppm: Myzus persicae, 72 h, read-out: mortality in comparison with untreated controls
Experimental: as §1, §2
B.2. Green peach aphid (Myzus persicae) (mixed life stages)
For evaluating control of Green Peach Aphid through systemic means the test unit consisted of 96-well-microtiter plates containing liquid artificial diet under an artificial membrane. The compounds were formulated using a solution containing 75% v/v water and 25% v/v DMSO. Different concentrations of formulated compounds were pipetted into the aphid diet, using a custom-built pipette, at two replications. After application, 5 - 8 adult aphids were placed on the artificial membrane inside the microtiter plate wells. The aphids were then allowed to suck on the treated aphid diet and incubated at about 23 ± 1°C and about 50 ± 5 % relative humidity for 3 days. Aphid mortality and fecundity was then visually assessed.

[1] = 300ppm, adult thrips, mortality recorded 72 hours after treatment
[2] = 300ppm, 3rd instar larvae, mortality recorded 72 hours after treatment
[3] = egg and larval mortality visually assessed after 5 days
[4] = 2500ppm, egg and larval mortality visually assessed after 5 days
[5] = 2500ppm, aphid mortality visually assessed after 3 days

Compound | mortality at 2500 ppm (Anthonomus grandis) | mortality at 300 ppm (Dichromothrips corbetti; 72 h) | mortality at 2500 ppm (Aedes aegypti) | mortality at 300 ppm (Plutella xylostella; 72 h) | mortality at 2500 ppm (Heliothis virescens) | mortality in comparison with untreated controls (Dichromothrips corbetti; [1]) | mortality in comparison with untreated controls (Plutella xylostella; [2]) | mortality in comparison with untreated controls (Spodoptera eridania) | mortality in comparison with untreated controls (Anthonomus grandis; [3]) | mortality in comparison with untreated controls (Aedes aegypti) | mortality in comparison with untreated controls (Heliothis virescens; [4]) | mortality in comparison with untreated controls (Myzus persicae; [5]) | other results
CCN(C1=NOC(c2cc(Cl)c(F)c(Cl)c2)(C(F)(F)F)C1)c1ccc(C#N)c(-n2cncn2)c1 (stereo not shown) [I-20, 4-[[5-(3,5-dichloro-4-fluoro-phenyl)-5-(trifluoromethyl)-4H-isoxazol-3-yl]-ethyl-amino]-2-(1,2,4-triazol-1-yl)benzonitrile] | ≥ 75% | ≥ 75% | ≥ 75% | ≥ 75% | ≥ 75% |  |  |  |  |  |  |  | mortality at 300 ppm (Spodoptera eridania): ≥ 75%
N-[4-chloro-3-[4-(trifluoromethyl)pyrazol-1-yl]phenyl]-5-(3,5-dichloro-4-fluoro-phenyl)-N-(methoxymethyl)-5-(trifluoromethyl)-4H-isoxazol-3-amine [I-23] |  |  |  |  |  | at least 75% | at least 75% | at least 75% |  |  |  |  | 
N#Cc1ccc(NC2=NOC(c3cc(Cl)c(F)c(Cl)c3)(C(F)(F)F)C2)cc1-n1cncn1 (stereo not shown) [I-4, 4-[[5-(3,5-dichloro-4-fluoro-phenyl)-5-(trifluoromethyl)-4H-isoxazol-3-yl]amino]-2-(1,2,4-triazol-1-yl)benzonitrile] | ≥ 75% | ≥ 75% | ≥ 75% | ≥ 75% | ≥ 75% |  |  |  |  |  |  |  | mortality at 300 ppm (Spodoptera eridania): ≥ 75%; mortality at 2500 ppm (Myzus persicae): ≥ 75%
CCN(C1=NOC(c2ccc(F)c(Cl)c2)(C(F)(F)F)C1)c1ccc(C#N)c(-n2cncn2)c1 (stereo not shown) [I-10] |  |  |  |  |  | at least 75% | at least 75% | at least 75% | at least 75% | at least 75% | at least 75% | at least 75% | 
N#Cc1ccc(NC2=NOC(c3cc(Cl)cc(Cl)c3)(C(F)(F)F)C2)cc1-n1cncn1 (stereo not shown) [I-1] |  |  |  |  |  | at least 75% | at least 75% | at least 75% | at least 75% | at least 75% | at least 75% | at least 75% | 
N#Cc1ccc(N(CC2CC2)C2=NOC(c3ccc(F)c(Cl)c3)(C(F)(F)F)C2)cc1-n1cncn1 (stereo not shown) [I-11] |  |  |  |  |  | at least 75% | at least 75% | at least 75% | at least 75% | at least 75% | at least 75% | at least 75% | 
CCOC(=O)N(C1=NOC(c2cc(Cl)c(F)c(Cl)c2)(C(F)(F)F)C1)c1ccc(Cl)c(-n2cnc(C(F)(F)F)c2)c1 (stereo not shown) [I-26, ethyl N-[4-chloro-3-[4-(trifluoromethyl)imidazol-1-yl]phenyl]-N-[5-(3,5-dichloro-4-fluoro-phenyl)-5-(trifluoromethyl)-4H-isoxazol-3-yl]carbamate] | ≥ 75% | ≥ 75% | ≥ 75% | ≥ 75% | ≥ 75% |  |  |  |  |  |  |  | mortality at 300 ppm (Spodoptera eridania): ≥ 75%
COCN(C1=NOC(c2cc(Cl)c(F)c(Cl)c2)(C(F)(F)F)C1)c1ccc(C#N)c(-n2cncn2)c1 (stereo not shown) [I-22] |  |  |  |  |  | at least 75% | at least 75% |  |  |  |  |  | 
N#Cc1ccc(NC2=NOC(c3ccc(F)c(Cl)c3)(C(F)(F)F)C2)cc1-n1cncn1 (stereo not shown) [I-6] |  |  |  |  |  | at least 75% | at least 75% | at least 75% | at least 75% | at least 75% | at least 75% | at least 75% | 
O=C(NCC(F)(F)F)c1cnn(-c2cc(NC3=NOC(c4cc(Cl)c(F)c(Cl)c4)(C(F)(F)F)C3)ccc2Cl)c1 (stereo not shown) [I-18, 1-[2-chloro-5-[[5-(3,5-dichloro-4-fluoro-phenyl)-5-(trifluoromethyl)-4H-isoxazol-3-yl]amino]phenyl]-N-(2,2,2-trifluoroethyl)pyrazole-4-carboxamide] |  |  |  |  |  |  |  |  |  |  |  |  | mortality at 2500 ppm (Anthonomus grandis; 2500 ppm, egg and larval mortality visually assessed after 5 days): ≥ 75%; mortality at 300 ppm (Dichromothrips corbetti; [1]): ≥ 75%; mortality at 300 ppm (Plutella xylostella; [2]): ≥ 75%; mortality at 2500 ppm (Heliothis virescens; [4]): ≥ 75%; mortality at 2500 ppm (Myzus persicae; [5]): ≥ 75%
CCN(C1=NOC(c2cc(Cl)c(F)c(Cl)c2)(C(F)(F)F)C1)c1ccc(Cl)c(-n2cncn2)c1 (stereo not shown) [I-19] |  |  |  |  |  | at least 75% | at least 75% | at least 75% | at least 75% | at least 75% | at least 75% | at least 75% | 
Fc1c(Cl)cc(C2(C(F)(F)F)CC(Nc3ccc(Cl)c(-n4cnc(C(F)(F)F)c4)c3)=NO2)cc1Cl (stereo not shown) [I-16, N-[4-chloro-3-[4-(trifluoromethyl)imidazol-1-yl]phenyl]-5-(3,5-dichloro-4-fluoro-phenyl)-5-(trifluoromethyl)-4H-isoxazol-3-amine] | ≥ 75% | ≥ 75% | ≥ 75% | ≥ 75% | ≥ 75% |  |  |  |  |  |  |  | mortality at 2500 ppm (Myzus persicae): ≥ 75%
